Legend:
[1] = system: M. tuberculosis H37Rv ATCC 27294 reference strain; type: cell-based, Mycobacterium tuberculosis
[2] = system: M. tuberculosis H37Ra; type: cell-based, Mycobacterium tuberculosis

O=[N+]([O-])c1ccc(/C(O)=C/C(=S)S)cc1 [Compound 11e, (Z)-3-hydroxy-3-(4-nitrophenyl)-prop-2-enedithioic acid]
inhibitory activity compared with 11a [1]: eight times that of 11a | MIC100 in H37Ra [2]: active
